Marks after values point to notes of the source that are not given here.
Experiments:
CD36 mRNA = assay: Real-time quantitative PCR of CD36 mRNA in apo E−/− mouse aorta; format: in vivo; conditions: apo E−/− mice, 15 weeks
Protocol: (§1) 80 healthy clean grade C57BL/6J apo E^−/^− mice of 10 weeks old, wherein male and female mice were fifty-fifty, weight 20-22 g, were breed and divided into individual cage in sterile laminar flow rack, allowing mice to freely drink water and get food. Mice were raised for 30 weeks by “Western Diet” (routine mouse feed +0.15% cholesterol +21% fat) high fat feed (^60cobalt sterilization radiation treatment), with raising conditions being SPF grade, room temperature maintained at 24° C., relative humidity of 50%, and lighting time of 7: 30-19: 30. Animal house was sterilized by ultraviolet lamp once every two days, in order to maintain sterile environment of laminar flow rack (establishment of animal model of atherosclerosis refers to reference: Barish G D, Atkins A R, Downes M, Olson P, Chong L W, Nelson M, Zou Y H, Hwang H S, Kang H J, Curtiss L, Evans R M, Lee C H. PPARδ regulates multiple proinflammatory pathways to suppress atherosclerosis. Proc Natl Acad Sci, 2008, 105 (11): 4271-4276.).
(§2) 5 mice of apo E^−/^− mice raised for 15 weeks were randomly selected and sacrificed, root of aorta of which was taken, and replication condition in AS model was observed by HE staining. The remaining mice were randomly divided into 5 groups as follows (n=15): […]
(§3) Above drugs were firstly solved in DMSO, then suspended in 0.5% carboxymethylcellulose solution, mixed homogeneously, and then were administered via gavage, once a day. Mice were weighted once a week, and ingestion amounts were recorded, and drug doses were adjusted according to weight, interfering for 15 weeks. […]
(§4) • blood fat assay: TC, TG, HDL-C, and LDL-C concentrations in serum were determined by applying Olympus Au2700 fully automatic biochemical appearance. • serum inflammatory markers assay: hs-CRP and sCD40L concentrations were determined by applying double antibody sandwich ELISA, in accordance with ELISA kit operating instruction (hs-CRP ELISA kit bought from Herrenberg company, Germany; sCD40L ELISA kit bought from Bender Medsystems company, Austria). • real-time quantitative PCR analysis was carried out on expression of CD36, perilipin, ABCA1, LXRα, MMP-9 and NF-κ B mRNA in apo E^−/^− mouse aorta (a reference method: Zhang Yiguan, Li Xiaohui, Fan Jishan, Zhang Haigang, Li Shuhui, Liao Wenqiang, Pang Yan, Jia Yi. […] 2007, 27 (11): 1601-1607)0 • morphology index image analysis: When slices were HE stained, under X40 fold ordinary light microscope, artery atherosclerosis plaque area of each incisal surface was determined by “Image Pro Plus 5.0” image analysis software. […] As to Masosn staining, aortic root collagen area (CA) was measured by “Image Pro Plus 5.0” image analysis software, and collagen vessel area ratio (CA/CVA) was calculated. […]

[1] = system: macrophage-derived foam cells of rat abdominal cavity; assay: Assay of amount of TC and CE in ox-LDL induced macrophage-derived foam cells; format: cell-based
Protocol: 1. Experiment animal: SD rats, male, 200-250 g, bought from the third Military Medical University Experiment Animal Center.
2. Reagents: RPMI 1640 culture medium free of phenol red bought from Invitrogen company; LDL (115 mg/mL) bought from Peking Union Medical College; total cholesterol kit and free cholesterol kit bought from Shanghai Mind Bioengineering Limited Company; ginsenoside compound K (hereinafter being called C-K for short. White powders, purity 99%), provided by Kunming Nuowei Jinshen Bioengineering limited company supply (batch number: NTGA070521, details see China invention patent 200710066011. X “a method of preparing rare ginsenoside compound K by streptomycete fermentation of Sanchi saponins”).
LDL was placed into PBS comprising 10 μM Cu^2+, dialysed at 37° C. for 12 h, then was placed into PBS comprising 0.01% EDTA, and dialysed at 4° C. for 24 hours before stopping oxidization, then was subjected to filtration sterilization, and stored for use.
4. Culture of macrophage and establishment of foam cells model (available literature: Jia Yi, Li Xiaohui, Xing Mao, Hei Xuefeng, Liu Ya, He Cuiyao. Studies on affect of various combinations of 3 sorts of monomers in total panax notoginsenosides on formation of mouse macrophage-derived foam cells. Journal of China Pharmacy, 2008, 19 (2), 881-883.)
each rat were intraperitoneally injected with 2 mL RPMI 1640 culture solution free of serum and phenol red, and it was sacrificed by cervical dislocation after 20 minutes, and was soaked in 75% ethanol for 10 minutes, then rat's belly was cut open, and fluids in abdominal cavity were collected, and centrifugated at 750 r/min for 5 minutes, and then cells were collected, and cells concentrations were adjusted to […] by using RPMI 1640 culture solution which were free of phenol red and comprised 10% Fetal Calf Serum. 10 pieces of 6 wells plate was added 1 mL cells suspension per well, and was placed into an incubator of 5% CO2 at 37 °C, and cultured for two hours, then supernatant was discarded, and nonadhesive cells was washed by using PBS. Original culture medium was discarded. Culture was carried out for 48 hours after adding 5 mL culture medium comprising 20 mg/L ox-LDL, and thereby foam cells were formed.
[…] were divided into ox-LDL model group, pyrrolidine dithiocarbamate (PDTC) (drugs source: Sigma), control group and C-K interference group. Each group had 5 pieces of plates. […]
Culture solution was aspirated, and lipid in foam cells was extracted by Folch method (reference: Folch J et al, A simple method for the isolation and purification of total lipides from animal tissues. J Biol Chem, 1957, 226 (1): 497-509), according to direction for use of kit.
Data was expressed as x±s, and variance analysis was carried out between groups by SPSS 13.0 software.

ABCA1 mRNA = assay: Real-time quantitative PCR of ABCA1 mRNA in apo E−/− mouse aorta; format: in vivo; conditions: apo E−/− mice, 15 weeks
Protocol: as §1, §2, §3, §4

[2] = C-K high dose 50.0 mg/kg/day gavage
[3] = C-K middle dose 25.0 mg/kg/day gavage
[4] = simvastatin 10.0 mg/kg/day gavage

SMILES | expression of CD36 mRNA in aorta (relative concentrations) (CD36 mRNA; [2]) | expression of CD36 mRNA in aorta (relative concentrations) (CD36 mRNA; C-K low dose 12.5 mg/kg/day gavage, model 1.12 ± 0.13) | expression of CD36 mRNA in aorta (relative concentrations) (CD36 mRNA; [3]) | TC and CE amount in foam cells compared with model group ([1]; 25 nM as printed in text) | CE in foam cells ([1]; 25 μM, 48 hours, rat foam cells, x ± s, n = 5, ox-LDL model group 15.24 ± 2.38) | CE/TC in foam cells ([1]; 25 μM, 48 hours, rat foam cells, x ± s, n = 5, ox-LDL model group 59.56 ± 2.96) | TC in foam cells ([1]; 25 μM, 48 hours, rat foam cells, x ± s, n = 5, ox-LDL model group 87.20 ± 2.19) | expression of ABCA1 mRNA in aorta (relative concentrations) (ABCA1 mRNA; [2]) | expression of ABCA1 mRNA in aorta (relative concentrations) (ABCA1 mRNA; C-K low dose 12.5 mg/kg/day gavage, model 0.65 ± 0.18) | expression of ABCA1 mRNA in aorta (relative concentrations) (ABCA1 mRNA; [3]) | expression of CD36 mRNA in aorta (relative concentrations) (CD36 mRNA; [4]) | expression of ABCA1 mRNA in aorta (relative concentrations) (ABCA1 mRNA; [4])
CC(C)=CCC[C@](C)(OC1OC(CO)C(O)C(O)C1O)C1CC[C@]2(C)C1[C@H](O)CC1[C@@]3(C)CC[C@H](O)C(C)(C)C3CC[C@]12C (stereo partly drawn) [C-K, 20-O-β-D-glucopyranosyl 20-(S)-protopanaxadiol] | 0.31 ± 0.08^b | 0.54 ± 0.07^b | 0.47 ± 0.08^b | significantly lowered | 28.12 ± 3.12^a | 47.01 ± 3.80^a % | 59.72 ± 2.38^a | 1.34 ± 0.13^b | 1.08 ± 0.15^b | 1.19 ± 0.18^b | – | –
CCC(C)(C)C(=O)O[C@H]1C[C@@H](C)C=C2C=C[C@H](C)[C@H](CC[C@@H]3C[C@@H](O)CC(=O)O3)[C@H]21 [simvastatin, reference compound] | – | – | – | – | – | – | – | – | – | – | 0.77 ± 0.11^a | 0.78 ± 0.12^a

Source: patent US20110212909A1, “Use of Ginsenoside Compound K in the Preparation of a Medicament for the Prevention and Treatment of Atherosclerosis” (priority 2008, published 2011)
